Source: ChEMBL document CHEMBL4732071, “Discovery of selective HDAC/BRD4 dual inhibitors as epigenetic probes” (Eur J Med Chem, 2021)
pIC50: −log10 of the molar value. Calls of active or inactive are those of the source. The rule behind the calls is not given here.

Columns and labels:
[1] = molecular target: T1, Protein deacetylase HDAC6 (Homo sapiens, UniProt Q9UBN7); assay: Inhibition of HDAC6 (unknown origin) by fluorescence based assay
T1 sequence (Q9UBN7 whole entry): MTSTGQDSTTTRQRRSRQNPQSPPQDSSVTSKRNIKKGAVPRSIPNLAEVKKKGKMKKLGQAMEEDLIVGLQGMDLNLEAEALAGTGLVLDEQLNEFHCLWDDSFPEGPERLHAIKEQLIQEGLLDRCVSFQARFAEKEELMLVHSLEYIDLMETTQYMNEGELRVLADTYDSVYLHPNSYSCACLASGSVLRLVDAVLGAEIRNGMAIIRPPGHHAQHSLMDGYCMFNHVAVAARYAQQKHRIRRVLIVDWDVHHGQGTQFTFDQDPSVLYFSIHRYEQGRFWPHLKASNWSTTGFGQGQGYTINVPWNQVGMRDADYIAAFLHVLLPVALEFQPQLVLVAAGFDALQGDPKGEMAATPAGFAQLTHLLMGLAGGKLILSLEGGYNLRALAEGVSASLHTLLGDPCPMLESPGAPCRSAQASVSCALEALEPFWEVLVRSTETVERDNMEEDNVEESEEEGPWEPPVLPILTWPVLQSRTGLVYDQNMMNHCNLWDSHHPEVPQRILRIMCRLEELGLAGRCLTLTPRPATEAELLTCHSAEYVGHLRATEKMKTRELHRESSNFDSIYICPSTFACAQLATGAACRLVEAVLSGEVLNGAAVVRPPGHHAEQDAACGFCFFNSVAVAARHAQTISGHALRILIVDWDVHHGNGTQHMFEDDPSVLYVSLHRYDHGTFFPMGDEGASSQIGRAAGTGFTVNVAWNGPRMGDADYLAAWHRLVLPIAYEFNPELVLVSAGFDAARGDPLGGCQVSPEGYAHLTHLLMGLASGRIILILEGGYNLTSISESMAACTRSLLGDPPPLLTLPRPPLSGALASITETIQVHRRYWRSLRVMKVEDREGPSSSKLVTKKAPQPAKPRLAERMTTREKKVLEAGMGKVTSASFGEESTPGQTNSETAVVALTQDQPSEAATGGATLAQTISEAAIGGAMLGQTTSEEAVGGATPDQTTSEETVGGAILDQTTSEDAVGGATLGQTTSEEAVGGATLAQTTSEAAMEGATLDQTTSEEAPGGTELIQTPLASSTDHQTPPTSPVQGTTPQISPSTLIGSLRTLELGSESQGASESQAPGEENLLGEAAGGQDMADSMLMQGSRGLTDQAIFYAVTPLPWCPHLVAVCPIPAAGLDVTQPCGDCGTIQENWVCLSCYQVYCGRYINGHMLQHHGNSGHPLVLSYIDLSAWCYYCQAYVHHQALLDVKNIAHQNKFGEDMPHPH

[2] = molecular target: T2, Bromodomain-containing protein 4 (Homo sapiens, UniProt O60885); assay: Inhibition of His-tagged BRD4 bromodomain 2 (unknown origin) using [Lys (5,8,12,16) Ac] H4(1-21) as substrate by fluorescence based assay
[3] = molecular target: T2, Bromodomain-containing protein 4; assay: Inhibition of His-tagged BRD4 bromodomain 1 (unknown origin) using [Lys (5,8,12,16) Ac] H4(1-21) as substrate by fluorescence based assay
MV4-11 = assay: Antiproliferative activity against human MV4-11 cells assessed as cell viability after 72 hrs by CCK8 assay; format: functional, cell-based; conditions: MV4-11, 72 h
Histone deacetylase 1 = Histone deacetylase 1 (Homo sapiens, UniProt Q13547); assay: Inhibition of HDAC1 (unknown origin) by fluorescence based assay
Sequence of Histone deacetylase 1 (Q13547 whole entry): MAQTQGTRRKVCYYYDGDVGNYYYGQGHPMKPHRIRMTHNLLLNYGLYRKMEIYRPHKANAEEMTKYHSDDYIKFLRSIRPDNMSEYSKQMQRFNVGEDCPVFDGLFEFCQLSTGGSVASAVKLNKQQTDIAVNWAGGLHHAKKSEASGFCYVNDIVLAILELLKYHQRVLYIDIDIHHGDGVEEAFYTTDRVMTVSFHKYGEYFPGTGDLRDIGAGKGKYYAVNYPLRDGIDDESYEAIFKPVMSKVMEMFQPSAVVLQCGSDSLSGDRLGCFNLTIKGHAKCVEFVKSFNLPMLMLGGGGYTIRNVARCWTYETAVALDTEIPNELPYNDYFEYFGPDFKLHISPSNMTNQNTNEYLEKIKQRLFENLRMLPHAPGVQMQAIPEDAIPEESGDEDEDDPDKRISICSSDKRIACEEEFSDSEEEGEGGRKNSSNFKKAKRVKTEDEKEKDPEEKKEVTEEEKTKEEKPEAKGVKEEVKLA

[4] = molecular target: T2, Bromodomain-containing protein 4; assay: Inhibition of BRD4 in human MV4-11 cells assessed as reduction in c-Myc expression at 10 to 1000 nM measured after 24 hrs by Western blot analysis; format: cell-based; conditions: dose 10-1000 nM

Compound	pIC50 [1]	pIC50 [2]	pIC50 [3]	pIC50 (MV4-11)	pIC50 (Histone deacetylase 1)	inhibition [4]
Cn1cc(-c2cc(C(C)(C)O)ccc2OC2CC2)c2cc(C(=O)NCc3ccc(C(=O)NO)cc3)[nH]c2c1=O	8.10	8.16	6.60	6.38	7.68	–
Cn1cc(-c2ccccc2Oc2ccccc2)c2cc(C(=O)NCCCCCC(=O)Nc3ccccc3N)[nH]c2c1=O	< 6.30	8.08	6.23	7.15	6.75	–
COc1ccccc1-c1cn(C)c(=O)c2[nH]c(C(=O)NCc3ccc(C(=O)Nc4ccccc4N)cc3)cc12	–	7.32	7.65	6.70	7.24	–
COc1cccc(-c2cn(C)c(=O)c3[nH]c(C(=O)NCc4ccc(C(=O)Nc5ccccc5N)cc4)cc23)c1	–	6.94	7.52	6.60	7.26	–
Cn1cc(-c2ccccc2)c2cc(C(=O)NCc3ccc(C(=O)Nc4ccccc4N)cc3)[nH]c2c1=O	–	7.12	7.32	6.64	7.28	–
Cn1cc(-c2ccc(C(F)(F)F)cc2)c2cc(C(=O)NCc3ccc(C(=O)Nc4ccccc4N)cc3)[nH]c2c1=O	–	6.44	6.84	–	6.62	–
Cn1cc(-c2cccc(F)c2)c2cc(C(=O)NCc3ccc(C(=O)Nc4ccccc4N)cc3)[nH]c2c1=O	–	7.12	7.29	6.68	7.27	–
Nc1ccccc1NC(=O)c1ccc(CNC(=O)OCc2cccnc2)cc1 [ENTINOSTAT]	–	< 5.00	< 5.00	6.62	–	–
COc1ccc(-c2cn(C)c(=O)c3[nH]c(C(=O)NCc4ccc(C(=O)Nc5ccccc5N)cc4)cc23)cc1	–	7.21	7.39	6.49	7.33	–
Cn1cc(-c2cccc(Cl)c2)c2cc(C(=O)NCc3ccc(C(=O)Nc4ccccc4N)cc3)[nH]c2c1=O	–	6.80	7.18	6.72	6.87	–
Cn1cc(-c2ccc(Cl)cc2)c2cc(C(=O)NCc3ccc(C(=O)Nc4ccccc4N)cc3)[nH]c2c1=O	–	6.56	7.20	–	7.23	–
CCNC(=O)c1cc2c(-c3cc(C(C)(C)O)ccc3Oc3c(C)cc(F)cc3C)cn(C)c(=O)c2[nH]1 [ABBV-744]	< 5.00	–	–	6.60	< 5.00	–
Cc1ccc(-c2cn(C)c(=O)c3[nH]c(C(=O)NCc4ccc(C(=O)Nc5ccccc5N)cc4)cc23)cc1	–	6.91	7.21	–	7.03	–
Cn1cc(-c2cc(C(C)(C)O)ccc2Oc2ccc(F)cc2F)c2cc(C(=O)NCCCCCCC(=O)NO)[nH]c2c1=O	8.06	8.14	7.27	6.60	7.28	–
Cn1cc(-c2ccccc2Cl)c2cc(C(=O)NCc3ccc(C(=O)Nc4ccccc4N)cc3)[nH]c2c1=O	–	6.69	6.99	–	7.31	–
Cn1cc(-c2cc(C(C)(C)O)ccc2Oc2ccc(F)cc2F)c2cc(C(=O)NCc3ccc(C(=O)NO)cc3)[nH]c2c1=O	7.81	7.91	7.12	6.72	7.13	–
Cn1cc(-c2ccccc2Oc2ccccc2)c2cc(C(=O)NCCCC(=O)NO)[nH]c2c1=O	6.84	6.99	6.85	6.42	< 6.30	–
Cn1cc(-c2ccccc2Oc2ccccc2)c2cc(C(=O)NCCCCCCC(=O)Nc3ccccc3N)[nH]c2c1=O	< 6.30	7.81	6.85	6.89	< 6.30	–
Cn1cc(-c2cccc(C(F)(F)F)c2)c2cc(C(=O)NCc3ccc(C(=O)Nc4ccccc4N)cc3)[nH]c2c1=O	–	6.50	6.08	–	< 6.30	–

Compound	pIC50 [1]	pIC50 [2]	pIC50 [3]	pIC50 (MV4-11)	pIC50 (Histone deacetylase 1)	inhibition [4]
Cn1cc(-c2ccccc2Oc2ccccc2)c2cc(C(=O)NCCCCC(=O)Nc3ccccc3N)[nH]c2c1=O	< 6.30	7.95	7.14	6.62	< 6.30	–
Cn1cc(-c2cc(C(C)(C)O)ccc2OC2CC2)c2cc(C(=O)NCc3ccc(C(=O)Nc4ccccc4N)cc3)[nH]c2c1=O	–	8.68	8.11	7.40	7.16	–
CC(C)Oc1ccc(C(C)(C)O)cc1-c1cn(C)c(=O)c2[nH]c(C(=O)NCc3ccc(C(=O)NO)cc3)cc12	7.28	8.00	7.50	6.46	7.44	–
Cn1cc(-c2cc(C(C)(C)O)ccc2Oc2ccccc2)c2cc(C(=O)NCc3ccc(C(=O)Nc4ccccc4N)cc3)[nH]c2c1=O	–	8.52	7.87	7.00	6.64	–
Cc1cccc(-c2cn(C)c(=O)c3[nH]c(C(=O)NCc4ccc(C(=O)Nc5ccccc5N)cc4)cc23)c1	–	6.98	7.28	–	7.26	–
Cn1cc(-c2ccccc2C(F)(F)F)c2cc(C(=O)NCc3ccc(C(=O)Nc4ccccc4N)cc3)[nH]c2c1=O	–	6.24	6.43	–	6.68	–
Cn1cc(-c2ccc(F)cc2)c2cc(C(=O)NCc3ccc(C(=O)Nc4ccccc4N)cc3)[nH]c2c1=O	–	7.10	7.36	6.66	7.33	–
COc1ccc(C(C)(C)O)cc1-c1cn(C)c(=O)c2[nH]c(C(=O)NCc3ccc(C(=O)Nc4ccccc4N)cc3)cc12	–	8.15	8.41	6.38	6.48	–
Cn1cc(-c2cccc(C(C)(C)O)c2)c2cc(C(=O)NCc3ccc(C(=O)Nc4ccccc4N)cc3)[nH]c2c1=O	–	7.52	7.70	5.66	7.55	–
CC(C)Oc1ccccc1-c1cn(C)c(=O)c2[nH]c(C(=O)NCc3ccc(C(=O)Nc4ccccc4N)cc3)cc12	–	7.82	7.64	6.89	6.93	–
Cn1cc(-c2cc(C(C)(C)O)ccc2OC2CC2)c2cc(C(=O)NCCCCCCC(=O)NO)[nH]c2c1=O	8.26	8.24	7.58	6.66	7.53	–
Cn1cc(-c2cc(C(C)(C)O)ccc2Oc2ccc(F)cc2F)c2cc(C(=O)NCc3ccc(C(=O)Nc4ccccc4N)cc3)[nH]c2c1=O	–	8.82	7.74	7.05	6.79	–
Cc1ccccc1-c1cn(C)c(=O)c2[nH]c(C(=O)NCc3ccc(C(=O)Nc4ccccc4N)cc3)cc12	–	6.83	6.93	6.51	7.19	–
Cc1cc(F)cc(C)c1Oc1ccc(C(C)(C)O)cc1-c1cn(C)c(=O)c2[nH]c(C(=O)NCc3ccc(C(=O)Nc4ccccc4N)cc3)cc12	–	7.44	6.64	6.62	< 6.30	–
Cn1cc(-c2ccccc2Oc2ccccc2)c2cc(C(=O)NCCCCCC(=O)NO)[nH]c2c1=O	8.47	8.42	7.67	6.21	7.35	Active
Cc1cc(F)cc(C)c1Oc1ccc(C(C)(C)O)cc1-c1cn(C)c(=O)c2[nH]c(C(=O)NCc3ccc(C(=O)NO)cc3)cc12	7.41	8.82	6.52	6.36	6.53	–
Cc1sc2c(c1C)C(c1ccc(Cl)cc1)=N[C@@H](CC(=O)Nc1ccc(O)cc1)c1nnc(C)n1-2 [BIRABRESIB]	< 5.00	–	–	6.70	< 5.00	–
Cn1cc(-c2ccccc2F)c2cc(C(=O)NCc3ccc(C(=O)Nc4ccccc4N)cc3)[nH]c2c1=O	–	7.26	7.07	6.64	7.68	–
O=C(CCCCCCC(=O)Nc1ccccc1)NO [VORINOSTAT]	–	< 5.00	< 5.00	–	–	–
